Columns and labels:
[1] = tested on: BMDCs; assay: [Ca2+]int measurement (Fluo-3 AM); assay type: cell-based, mouse; conditions: 5 or 10 μg/mL Ca
Experimental: Fluo-3 AM kit (Cayman, 14960) was used to measure [Ca2+]int in BMDCs after treatment with AnCHNPs. Briefly, BMDCs were seeded into a 96-well plate at a density of 1×10^4 cells per well and incubated overnight. At different time points (0, 1, 2, 4, 8, and 24 hrs), medium was taken from the well, replenished with prewarmed (37° C.) probe-containing medium (to a final concentration of 5 μM). Cells were incubated for 30 mins under the same growth conditions. Then the loading solution was replaced with fresh medium, removing dye molecules nonspecifically attached to cell surface. Cells were incubated for another 30 mins to allow for complete de-esterification of the acetoxymethyl esters. Fluorescence (ex/em: 485/520 nm) was recorded on a microplate reader (Synergy Mx, BioTeK).

[2] = tested on: BMDCs/B16F10-OVA (pre-irradiated, 100 Gy) co-cultures; assay: DC activation and antigen-presentation in co-culture (flow cytometry, ELISA); assay type: cell-based, mouse; conditions: comparators
[3] = tested on: EL4 cells; conditions: dose as equivalent calcium concentration
[4] = tested on: CFSE-labeled BMDCs; assay: Transwell DC migration assay; assay type: cell-based, mouse; conditions: 5 or 10 μg/mL, 24 h, B16F10-OVA in lower chamber
[5] = tested on: B16F10-OVA-tumor-bearing C57BL/6 mice
[6] = tested on: EL4 cells; assay: Intracellular calcium levels (Fluo-3AM); assay type: cell-based; conditions: same calcium concentration
Experimental: Changes in intracellular calcium levels were measured using Fluo-3AM as an indicator.

[7] = tested on: BMDCs; assay: BMDC maturation, flow cytometry for MHC-II and CD205; assay type: cell-based, mouse; conditions: 5 or 10 μg/mL, 24 h, no cancer cells
Experimental: Maturation BMDCs were seeded onto a 6-well plate at a density of 1×10^6 cells per well one day before the experiment. BMDCs were treated with PBS, CaCl2 solution (5 or 10 μg/mL), and AnCHNPs (5 or 10 μg/mL). After incubation for 24 hrs, supernatant was removed, and BMDCs were harvested by cell lifter. BMDCs were subsequently stained with MHCII-FITC (#107616) and CD205-APC (#138206) and analyzed flow cytometry. Also, BMDCs were treated with SiO2-PEG shell (10 μg/mL), harvested after 24 hrs incubation, stained with MHCII-FITC (#107616), CD80-PerCP-Cy5.5 (#560526), CD86-BV605 (#563055), CD40-PE (#12-0401-83), and OVA-APC (#17-5743-82), and analyzed by flow cytometry.

[8] = tested on: BMDCs; assay: Cell uptake of Cy5-labeled nanoparticles by flow cytometry; assay type: cell-based, mouse; conditions: co-incubation with Cy5-labeled AnCHNPs 5 μg/mL
Experimental: BMDCs were seeded into 6-well plates at a density of 1×10^6 cells per well and incubated overnight. The cells were then treated with Cy-5 labeled PCHNPs and AnCHNPs (5 μg/mL) for 2 hrs. Furthermore, different endocytosis inhibitors Sodium azide (NaN3, 99.5%, Sigma-Aldrich, Lot #S2002), Dynasore (C18H14N2O4, 98%, Sigma-Aldrich, Lot #324410), Nystatin (Sigma-Aldrich, Lot #N4014), Chlorpromazine (C17H19ClN2S·HCl, 98%, Sigma-Aldrich, Lot #C8138) were used. The Fluorescence of Cy-5 taken up by DCs were measured by flow cytometry.

[9] = tested on: EL4 cells; assay: Cellular uptake of Cy5-labelled nanoparticles in EL4 cells; assay type: cell-based; conditions: EL4, co-incubation
[10] = tested on: C57BL/6 mice bearing B16F10-OVA tumors; assay: Therapy study, combination with chemotherapy (carboplatin); assay type: in vivo; conditions: carboplatin alone, 40 mg/kg i.p.
Experimental: Combination with chemotherapy: This was investigated in C57BL/6 mice bearing B16F10-OVA tumors. When tumor sizes reached ~50 mm3, the animals were randomized to receive the following treatments (n=5 for each group): (1) PBS (i.t., 50 μL*2, Day 0 and Day 2); (2) Carboplatin (i.p., 40 mg/kg, 100 μL, Day 0); (3) Carboplatin (i.p., 40 mg/kg, 100 μL, Day 0)+AnCHNPs (i.t., 200 μg/kg*2, 50 μL, Day 0 and Day 2). The tumor size and body weight were inspected daily. The tumor was measured in two dimensions with a caliper and tumor volume was estimated as (length)×(width) 2/2.

Structure (SMILES): [Ca+2].[Cl-].[Cl-] [CaCl2, calcium chloride]
- [Ca2+]int change [1]: little [Ca^2+]int increase
- impact on DC activation [2]: no positive impact on DC activation
- Ca2+ concentration at which an effect on cell viability / significant toxicity appears [3]: ≥ 100 µg/mL
- numbers of DCs migrating to the bottom chamber [4]: minimally affected DC migration
- IFN-γ+ CTL frequency, splenocytes co-incubated with B16F10-OVA cells ex vivo ([5]; 6 h co-incubation): marginal T cell activation
- change of serum cytokine levels (IL-1β, IL-6, TNF-α, IFN-γ, IL-12 elevated, IL-10 decreased) ([5]; Day 3 and Day 7, relative to PBS control, comparator): not
- frequency of Tregs (CD45+CD3+CD4+Foxp3+) in tumors ([5]; RT 10 Gy + 200 μg/kg i.t.): minimum impact
- tumor-infiltration of cytotoxic T cells (CTLs, CD45+CD3+CD8+) ([5]; RT 10 Gy + 200 μg/kg i.t., tumor, Day 7): minimum impact
- intracellular calcium levels [6]: did not increase cellular calcium levels
- CD205 expression in DCs [7]: no impact
- population and expression levels (MFI) of MHC-II+ DCs ([7]; relative to untreated DCs): no impact

Structure (SMILES): CN(C)CCCN1c2ccccc2Sc2ccc(Cl)cc21 [chlorpromazine, Chlorpromazine]
- effect of endocytosis inhibitor on AnCHNPs uptake by DCs [8]: inhibited

Structure (SMILES): [N-]=[N+]=[N-].[Na+] [azide, Sodium azide]
- effect of endocytosis inhibitor on AnCHNPs uptake by DCs [8]: reduced

Structure (SMILES): C[C@@H]1[C@H](O)[C@@H](C)/C=C/C=C/CC/C=C/C=C/C=C/C=C/C(O[C@H]2O[C@H](C)[C@@H](O)[C@H](N)[C@@H]2O)CC2O[C@](O)(CC(O)C(O)CCC(O)CC(O)CC(O)CC(=O)O[C@H]1C)CC(O)C2C(=O)O (some centres unmarked) [nystatin, Nystatin]
- effect of endocytosis inhibitor on uptake of PMA@CCNP-Ab [9]: did not inhibit cellular uptake
- effect of endocytosis inhibitor on AnCHNPs uptake by DCs [8]: had no effect on the particle uptake

Structure (SMILES): N.N.O=C([O-])C1(C(=O)[O-])CCC1.[Pt+2] [carboplatin]
- average survival [10]: 15 days
- time by which all animals died [10]: ≤ 3 weeks
- tumor growth [10]: only marginally retarded tumor growth

Structure (SMILES): O=C(N/N=C/c1ccc(O)c(O)c1)c1cc2ccccc2cc1O [dynasore, Dynasore]
- effect of endocytosis inhibitor on uptake of PMA@CCNP-Ab [9]: decreased
- effect of endocytosis inhibitor on AnCHNPs uptake by DCs [8]: inhibited
